From ChEMBL document CHEMBL1156542, “Facile radiosynthesis of fluorine-18 labeled beta-blockers. Synthesis, radiolabeling, and ex vivo biodistribution of [18F]-(2S and 2R)-1-(1-fluoropropan-2-ylamino)-3-(m-tolyloxy)propan-2-ol” (J Med Chem, 2008)
Each block holds one compound with its values, some of them ahead of it.

Legend:
[1] = Lipophilicity, log P at pH 7.4; format: physicochemical; details: buffer
[2] = system: Hypothalamus; test: Biodistribution in Sprague-Dawley rat hypothalamus at 70 uCi, iv after 15 mins; format: ADME, organism-based; details: in vivo, 0.25 h
[3] = system: Thalamus; test: Biodistribution in Sprague-Dawley rat thalamus at 70 uCi, iv after 15 mins; format: ADME, organism-based; details: in vivo, 0.25 h
[4] = system: Striatum; test: Biodistribution in Sprague-Dawley rat striatum at 70 uCi, iv after 5 mins; format: ADME, organism-based; details: in vivo
[5] = system: Heart; test: Biodistribution in Sprague-Dawley rat heart at 70 uCi, iv after 15 mins; format: ADME, organism-based; details: in vivo, 0.25 h
[6] = system: Brain; test: Biodistribution in Sprague-Dawley rat rest of brain at 70 uCi, iv after 30 mins; format: ADME, organism-based; details: in vivo, 0.5 h
[7] = system: Hippocampus; test: Biodistribution in Sprague-Dawley rat hippocampus at 70 uCi, iv after 15 mins; format: ADME, organism-based; details: in vivo, 0.25 h
[8] = Biodistribution in Sprague-Dawley rat frontal cortex at 70 uCi, iv after 15 mins; format: ADME, organism-based; details: in vivo, 0.25 h
[9] = system: Cerebellum; test: Biodistribution in Sprague-Dawley rat cerebellum at 70 uCi, iv after 15 mins; format: ADME, organism-based; details: in vivo, 0.25 h
[10] = system: Plasma; test: Biodistribution in Sprague-Dawley rat plasma at 70 uCi, iv after 5 mins; format: ADME, organism-based; details: in vivo
[11] = system: Heart; test: Biodistribution in Sprague-Dawley rat heart at 70 uCi, iv after 30 mins; format: ADME, organism-based; details: in vivo, 0.5 h
[12] = system: Cortex; test: Biodistribution in Sprague-Dawley rat rest of cortex at 70 uCi, iv after 15 mins; format: ADME, organism-based; details: in vivo, 0.25 h
[13] = system: Brain; test: Biodistribution in Sprague-Dawley rat rest of brain at 70 uCi, iv after 5 mins; format: ADME, organism-based; details: in vivo
[14] = system: Bone; test: Biodistribution in Sprague-Dawley rat bone at 70 uCi, iv after 5 mins; format: ADME, organism-based, Bone element; details: in vivo
[15] = system: Bone; test: Biodistribution in Sprague-Dawley rat bone at 70 uCi, iv after 60 mins; format: ADME, organism-based, Bone element; details: in vivo, 1 h
[16] = system: Heart; test: Biodistribution in Sprague-Dawley rat heart at 70 uCi, iv after 5 mins; format: ADME, organism-based; details: in vivo
[17] = system: Cortex; test: Biodistribution in Sprague-Dawley rat rest of cortex at 70 uCi, iv after 30 mins; format: ADME, organism-based; details: in vivo, 0.5 h
[18] = Biodistribution in Sprague-Dawley rat frontal cortex at 70 uCi, iv after 30 mins; format: ADME, organism-based; details: in vivo, 0.5 h
[19] = system: Brain; test: Biodistribution in Sprague-Dawley rat rest of brain at 70 uCi, iv after 15 mins; format: ADME, organism-based; details: in vivo, 0.25 h
[20] = system: Hippocampus; test: Biodistribution in Sprague-Dawley rat hippocampus at 70 uCi, iv after 60 mins; format: ADME, organism-based; details: in vivo, 1 h
[21] = system: Cerebellum; test: Biodistribution in Sprague-Dawley rat cerebellum at 70 uCi, iv after 5 mins; format: ADME, organism-based; details: in vivo
[22] = system: Plasma; test: Biodistribution in Sprague-Dawley rat plasma at 70 uCi, iv after 30 mins; format: ADME, organism-based; details: in vivo, 0.5 h
[23] = system: Striatum; test: Biodistribution in Sprague-Dawley rat striatum at 70 uCi, iv after 15 mins; format: ADME, organism-based; details: in vivo, 0.25 h
[24] = system: Heart; test: Biodistribution in Sprague-Dawley rat heart at 70 uCi, iv after 60 mins; format: ADME, organism-based; details: in vivo, 1 h
[25] = system: Striatum; test: Biodistribution in Sprague-Dawley rat striatum at 70 uCi, iv after 30 mins; format: ADME, organism-based; details: in vivo, 0.5 h
[26] = system: Hippocampus; test: Biodistribution in Sprague-Dawley rat hippocampus at 70 uCi, iv after 30 mins; format: ADME, organism-based; details: in vivo, 0.5 h
[27] = system: Hypothalamus; test: Biodistribution in Sprague-Dawley rat hypothalamus at 70 uCi, iv after 60 mins; format: ADME, organism-based; details: in vivo, 1 h
[28] = Metabolic stability in Sprague-Dawley rat plasma at 70 uCi, iv after 30 mins; format: ADME, organism-based; details: read-out: Stability
[29] = system: Bone; test: Biodistribution in Sprague-Dawley rat bone at 70 uCi, iv after 15 mins; format: ADME, organism-based, Bone element; details: in vivo, 0.25 h
[30] = system: Plasma; test: Biodistribution in Sprague-Dawley rat plasma at 70 uCi, iv after 60 mins; format: ADME, organism-based; details: in vivo, 1 h
[31] = Biodistribution in Sprague-Dawley rat frontal cortex at 70 uCi, iv after 60 mins; format: ADME, organism-based; details: in vivo, 1 h
[32] = system: Hypothalamus; test: Biodistribution in Sprague-Dawley rat hypothalamus at 70 uCi, iv after 30 mins; format: ADME, organism-based; details: in vivo, 0.5 h
[33] = system: Brain; test: Biodistribution in Sprague-Dawley rat rest of brain at 70 uCi, iv after 60 mins; format: ADME, organism-based; details: in vivo, 1 h
[34] = system: Cortex; test: Biodistribution in Sprague-Dawley rat rest of cortex at 70 uCi, iv after 60 mins; format: ADME, organism-based; details: in vivo, 1 h
[35] = Metabolic stability in Sprague-Dawley rat plasma at 70 uCi, iv after 15 mins; format: ADME, organism-based; details: read-out: Stability
[36] = system: Thalamus; test: Biodistribution in Sprague-Dawley rat thalamus at 70 uCi, iv after 30 mins; format: ADME, organism-based; details: in vivo, 0.5 h
[37] = system: Hippocampus; test: Biodistribution in Sprague-Dawley rat hippocampus at 70 uCi, iv after 5 mins; format: ADME, organism-based; details: in vivo
[38] = Biodistribution in Sprague-Dawley rat frontal cortex at 70 uCi, iv after 5 mins; format: ADME, organism-based; details: in vivo
[39] = system: Hypothalamus; test: Biodistribution in Sprague-Dawley rat hypothalamus at 70 uCi, iv after 5 mins; format: ADME, organism-based; details: in vivo
[40] = system: Cerebellum; test: Biodistribution in Sprague-Dawley rat cerebellum at 70 uCi, iv after 30 mins; format: ADME, organism-based; details: in vivo, 0.5 h
[41] = system: Thalamus; test: Biodistribution in Sprague-Dawley rat thalamus at 70 uCi, iv after 5 mins; format: ADME, organism-based; details: in vivo
[42] = system: Cortex; test: Biodistribution in Sprague-Dawley rat rest of cortex at 70 uCi, iv after 5 mins; format: ADME, organism-based; details: in vivo
[43] = system: Plasma; test: Biodistribution in Sprague-Dawley rat plasma at 70 uCi, iv after 15 mins; format: ADME, organism-based; details: in vivo, 0.25 h
[44] = system: Cerebellum; test: Biodistribution in Sprague-Dawley rat cerebellum at 70 uCi, iv after 60 mins; format: ADME, organism-based; details: in vivo, 1 h
[45] = Metabolic stability in Sprague-Dawley rat plasma at 70 uCi, iv after 60 mins; format: ADME, organism-based; details: read-out: Stability
[46] = system: Thalamus; test: Biodistribution in Sprague-Dawley rat thalamus at 70 uCi, iv after 60 mins; format: ADME, organism-based; details: in vivo, 1 h
[47] = system: Striatum; test: Biodistribution in Sprague-Dawley rat striatum at 70 uCi, iv after 60 mins; format: ADME, organism-based; details: in vivo, 1 h
[48] = Metabolic stability in Sprague-Dawley rat plasma at 70 uCi, iv after 5 mins; format: ADME, organism-based; details: read-out: Stability
[49] = system: Bone; test: Biodistribution in Sprague-Dawley rat bone at 70 uCi, iv after 30 mins; format: ADME, organism-based, Bone element; details: in vivo, 0.5 h
[50] = biological target: Beta-2 adrenergic receptor (Homo sapiens, UniProt P07550); test: Binding affinity to beta2 adrenergic receptor
Chain of Beta-2 adrenergic receptor (P07550 whole entry): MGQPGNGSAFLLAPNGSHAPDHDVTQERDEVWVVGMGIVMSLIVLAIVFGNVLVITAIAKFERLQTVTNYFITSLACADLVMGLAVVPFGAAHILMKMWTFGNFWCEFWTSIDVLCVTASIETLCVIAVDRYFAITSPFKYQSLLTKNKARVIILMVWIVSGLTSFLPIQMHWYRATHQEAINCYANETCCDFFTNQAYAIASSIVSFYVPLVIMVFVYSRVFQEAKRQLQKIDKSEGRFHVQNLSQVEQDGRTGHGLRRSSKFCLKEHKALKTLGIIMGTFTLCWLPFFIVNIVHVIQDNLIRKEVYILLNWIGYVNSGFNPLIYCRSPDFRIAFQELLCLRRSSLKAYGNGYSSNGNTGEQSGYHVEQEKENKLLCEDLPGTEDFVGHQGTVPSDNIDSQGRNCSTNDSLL

[51] = biological target: Beta-1 adrenergic receptor (Homo sapiens, UniProt P08588); test: Binding affinity to beta-1 adrenergic receptor
Chain of Beta-1 adrenergic receptor (P08588 whole entry): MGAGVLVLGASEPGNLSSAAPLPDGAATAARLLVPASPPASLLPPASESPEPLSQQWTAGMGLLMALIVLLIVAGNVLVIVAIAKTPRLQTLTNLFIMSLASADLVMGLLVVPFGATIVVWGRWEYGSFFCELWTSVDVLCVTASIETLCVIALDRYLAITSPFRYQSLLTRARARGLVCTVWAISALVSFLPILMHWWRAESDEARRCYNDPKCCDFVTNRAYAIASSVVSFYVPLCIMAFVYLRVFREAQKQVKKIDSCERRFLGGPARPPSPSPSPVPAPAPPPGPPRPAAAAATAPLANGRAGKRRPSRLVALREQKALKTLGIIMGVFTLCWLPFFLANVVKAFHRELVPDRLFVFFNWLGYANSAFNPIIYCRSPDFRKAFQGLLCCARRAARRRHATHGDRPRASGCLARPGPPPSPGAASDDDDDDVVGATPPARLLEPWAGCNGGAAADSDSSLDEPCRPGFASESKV

logD [1]: 0.2
SMILES: Cc1cccc(OC[11C@@H](O)CNC(C)C)c1

Drug uptake [2]: 0.5 % ID/g
Drug uptake [3]: 0.65 % ID/g
Drug uptake [4]: 0.97 % ID/g
Drug uptake [5]: 0.26 % ID/g
Drug uptake [6]: 0.24 % ID/g
Drug uptake [7]: 0.63 % ID/g
Drug uptake [8]: 0.67 % ID/g
Drug uptake [9]: 0.46 % ID/g
Drug uptake [10]: 0.16 % ID/g
Drug uptake [11]: 0.15 % ID/g
Drug uptake [12]: 0.62 % ID/g
Drug uptake [13]: 0.84 % ID/g
Drug uptake [14]: 0.18 % ID/g
Drug uptake [15]: 0.18 % ID/g
Drug uptake [16]: 0.59 % ID/g
Drug uptake [17]: 0.29 % ID/g
Drug uptake [18]: 0.3 % ID/g
Drug uptake [19]: 0.5 % ID/g
Drug uptake [20]: 0.12 % ID/g
Drug uptake [21]: 0.75 % ID/g
Drug uptake [22]: 0.13 % ID/g
Drug uptake [23]: 0.59 % ID/g
Drug uptake [24]: 0.06 % ID/g
Drug uptake [25]: 0.27 % ID/g
Drug uptake [26]: 0.31 % ID/g
Drug uptake [27]: 0.09 % ID/g
remaining at 0.5 h [28]: 16.4%
Drug uptake [29]: 0.21 % ID/g
Drug uptake [30]: 0.08 % ID/g
Drug uptake [31]: 0.12 % ID/g
Drug uptake [32]: 0.22 % ID/g
Drug uptake [33]: 0.1 % ID/g
Drug uptake [34]: 0.11 % ID/g
remaining at 0.25 h [35]: 28.6%
Drug uptake [36]: 0.29 % ID/g
Drug uptake [37]: 0.91 % ID/g
Drug uptake [38]: 1.21 % ID/g
Drug uptake [39]: 0.77 % ID/g
Drug uptake [40]: 0.21 % ID/g
Drug uptake [41]: 1.03 % ID/g
Drug uptake [42]: 1.12 % ID/g
Drug uptake [43]: 0.13 % ID/g
Drug uptake [44]: 0.08 % ID/g
remaining at 1 h [45]: 11.9%
Drug uptake [46]: 0.11 % ID/g
Drug uptake [47]: 0.11 % ID/g
remaining at 5 min [48]: 59.2%
Drug uptake [49]: 0.18 % ID/g
logD [1]: 1.68
SMILES: Cc1cccc(OC[C@@H](O)CNC(C)C[18F])c1 (stereo partly drawn)

Drug uptake [2]: 0.46 % ID/g
Drug uptake [3]: 0.62 % ID/g
Drug uptake [4]: 1.04 % ID/g
Drug uptake [5]: 0.26 % ID/g
Drug uptake [6]: 0.25 % ID/g
Drug uptake [7]: 0.6 % ID/g
Drug uptake [8]: 0.59 % ID/g
Drug uptake [9]: 0.43 % ID/g
Drug uptake [10]: 0.16 % ID/g
Drug uptake [11]: 0.15 % ID/g
Drug uptake [12]: 0.55 % ID/g
Drug uptake [13]: 0.88 % ID/g
Drug uptake [14]: 0.3 % ID/g
Drug uptake [15]: 0.25 % ID/g
Drug uptake [16]: 0.51 % ID/g
Drug uptake [17]: 0.29 % ID/g
Drug uptake [18]: 0.29 % ID/g
Drug uptake [19]: 0.47 % ID/g
Drug uptake [20]: 0.12 % ID/g
Drug uptake [21]: 0.82 % ID/g
Drug uptake [22]: 0.13 % ID/g
Drug uptake [23]: 0.54 % ID/g
Drug uptake [24]: 0.07 % ID/g
Drug uptake [25]: 0.26 % ID/g
Drug uptake [26]: 0.31 % ID/g
Drug uptake [27]: 0.09 % ID/g
remaining at 0.5 h [28]: 12.6%
Drug uptake [29]: 0.22 % ID/g
Drug uptake [30]: 0.07 % ID/g
Drug uptake [31]: 0.12 % ID/g
Drug uptake [32]: 0.23 % ID/g
Drug uptake [33]: 0.1 % ID/g
Drug uptake [34]: 0.11 % ID/g
remaining at 0.25 h [35]: 25.5%
Drug uptake [36]: 0.3 % ID/g
Drug uptake [37]: 1.01 % ID/g
Drug uptake [38]: 1.3 % ID/g
Drug uptake [39]: 0.92 % ID/g
Drug uptake [40]: 0.23 % ID/g
Drug uptake [41]: 1.19 % ID/g
Drug uptake [42]: 1.12 % ID/g
Drug uptake [43]: 0.13 % ID/g
Drug uptake [44]: 0.08 % ID/g
remaining at 1 h [45]: 7.7%
Drug uptake [46]: 0.12 % ID/g
Drug uptake [47]: 0.11 % ID/g
remaining at 5 min [48]: 61.9%
Drug uptake [49]: 0.3 % ID/g
logD [1]: 1.79
SMILES: Cc1cccc(OC[C@H](O)CNC(C)C[18F])c1 (stereo partly drawn)

Kd [50]: 1.2 nM
Kd [51]: 0.38 nM
SMILES: Cc1cccc(OC[C@@H](O)CNC(C)C)c1 [(S)-TOLIPROLOL]

logD [1]: 1.36
SMILES: CC(C)NCC(O)COc1cccc2[nH]c3ccccc3c12 (stereo not drawn) [CARAZOLOL]

SMILES: CC(CF)NCC(O)COc1cccc2[nH]c3ccccc3c12 (stereo not drawn) [FLUOROCARAZOLOL]
logD [1]: 2.2
